Test system: Unknown protein yeast genes
Assay: DNA chip mRNA expression in yeast, unknown protein yeast genes (Table 1)
Type: cell-based, Saccharomyces cerevisiae S288C
Procedure, shortened: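 Whole-genome yeast DNA chip hybridization (65° C., >12 h) of Cy-labeled cDNA from S288C cells exposed 2 h at 25° C. to a sub-lethal toxicant dose in YPD; value is intensity relative to chemical-free control.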

O=[N+]([O-])c1cc[n+]([O-])c2ccccc12 [(5), 4-nitroquinolin-N-oxide]
The level of expressed mRNA in the presence of chemical substance/The level of expressed mRNA in the absence of chemical substance (yeast gene YKL071W): 1.1
The level of expressed mRNA in the presence of chemical substance/The level of expressed mRNA in the absence of chemical substance (yeast gene YKL086W, incubated two hours with chemical substance): 0.8
The level of expressed mRNA in the presence of chemical substance/The level of expressed mRNA in the absence of chemical substance (yeast gene YKL151C, incubated two hours with chemical substance): 1.0
The level of expressed mRNA in the presence of chemical substance/The level of expressed mRNA in the absence of chemical substance (yeast gene YKL153W, incubated two hours with chemical substance): 1.0
The level of expressed mRNA in the presence of chemical substance/The level of expressed mRNA in the absence of chemical substance (yeast gene YKL195W, incubated two hours with chemical substance): 1.9
The level of expressed mRNA in the presence of chemical substance/The level of expressed mRNA in the absence of chemical substance (yeast gene YKR091W, incubated two hours with chemical substance): 1.6
The level of expressed mRNA in the presence of chemical substance/The level of expressed mRNA in the absence of chemical substance (yeast gene YLR054C, incubated two hours with chemical substance): 1.3
The level of expressed mRNA in the presence of chemical substance/The level of expressed mRNA in the absence of chemical substance (yeast gene YLR149C, incubated two hours with chemical substance): 0.8
The level of expressed mRNA in the presence of chemical substance/The level of expressed mRNA in the absence of chemical substance (yeast gene YLR152C, incubated two hours with chemical substance): 1.1
The level of expressed mRNA in the presence of chemical substance/The level of expressed mRNA in the absence of chemical substance (yeast gene YLR194C, incubated two hours with chemical substance): 1.0
The level of expressed mRNA in the presence of chemical substance/The level of expressed mRNA in the absence of chemical substance (yeast gene YLR324W, incubated two hours with chemical substance): 1.3
The level of expressed mRNA in the presence of chemical substance/The level of expressed mRNA in the absence of chemical substance (yeast gene YLR339C): 1.3
The level of expressed mRNA in the presence of chemical substance/The level of expressed mRNA in the absence of chemical substance (yeast gene YLR350W, incubated two hours with chemical substance): 0.8
The level of expressed mRNA in the presence of chemical substance/The level of expressed mRNA in the absence of chemical substance (yeast gene YLR387C, incubated two hours with chemical substance): 1.3
The level of expressed mRNA in the presence of chemical substance/The level of expressed mRNA in the absence of chemical substance (yeast gene YLR460C): 1.3
The level of expressed mRNA in the presence of chemical substance/The level of expressed mRNA in the absence of chemical substance (yeast gene YML117W, incubated two hours with chemical substance): 0.8
The level of expressed mRNA in the presence of chemical substance/The level of expressed mRNA in the absence of chemical substance (yeast gene YMR007W): 1.3
The level of expressed mRNA in the presence of chemical substance/The level of expressed mRNA in the absence of chemical substance (yeast gene YMR009W, incubated two hours with chemical substance): 1.9
The level of expressed mRNA in the presence of chemical substance/The level of expressed mRNA in the absence of chemical substance (yeast gene YMR067C, incubated two hours with chemical substance): 1.1
The level of expressed mRNA in the presence of chemical substance/The level of expressed mRNA in the absence of chemical substance (yeast gene YMR090W): 0.7
The level of expressed mRNA in the presence of chemical substance/The level of expressed mRNA in the absence of chemical substance (yeast gene YMR095C, incubated two hours with chemical substance): 0.9
The level of expressed mRNA in the presence of chemical substance/The level of expressed mRNA in the absence of chemical substance (yeast gene YMR097C, incubated two hours with chemical substance): 0.7
The level of expressed mRNA in the presence of chemical substance/The level of expressed mRNA in the absence of chemical substance (yeast gene YMR102C, incubated two hours with chemical substance): 1.2
The level of expressed mRNA in the presence of chemical substance/The level of expressed mRNA in the absence of chemical substance (yeast gene YMR107W, incubated two hours with chemical substance): 1.1
The level of expressed mRNA in the presence of chemical substance/The level of expressed mRNA in the absence of chemical substance (yeast gene YMR180C, incubated two hours with chemical substance): 1.0
The level of expressed mRNA in the presence of chemical substance/The level of expressed mRNA in the absence of chemical substance (yeast gene YMR184W, incubated two hours with chemical substance): 0.8
The level of expressed mRNA in the presence of chemical substance/The level of expressed mRNA in the absence of chemical substance (yeast gene YMR191W, incubated two hours with chemical substance): 1.5
The level of expressed mRNA in the presence of chemical substance/The level of expressed mRNA in the absence of chemical substance (yeast gene YMR295C, incubated two hours with chemical substance): 1.4
The level of expressed mRNA in the presence of chemical substance/The level of expressed mRNA in the absence of chemical substance (yeast gene YMR316W, incubated two hours with chemical substance): 1.1
The level of expressed mRNA in the presence of chemical substance/The level of expressed mRNA in the absence of chemical substance (yeast gene YNL044W, incubated two hours with chemical substance): 1.2
The level of expressed mRNA in the presence of chemical substance/The level of expressed mRNA in the absence of chemical substance (yeast gene YNL074C, incubated two hours with chemical substance): 1.3
The level of expressed mRNA in the presence of chemical substance/The level of expressed mRNA in the absence of chemical substance (yeast gene YNL092W, incubated two hours with chemical substance): 0.9
The level of expressed mRNA in the presence of chemical substance/The level of expressed mRNA in the absence of chemical substance (yeast gene YNL115C, incubated two hours with chemical substance): 0.8
The level of expressed mRNA in the presence of chemical substance/The level of expressed mRNA in the absence of chemical substance (yeast gene YNL156C, incubated two hours with chemical substance): 1.6
The level of expressed mRNA in the presence of chemical substance/The level of expressed mRNA in the absence of chemical substance (yeast gene YNL234W, incubated two hours with chemical substance): 1.7
The level of expressed mRNA in the presence of chemical substance/The level of expressed mRNA in the absence of chemical substance (yeast gene YNL281W, incubated two hours with chemical substance): 1.7
The level of expressed mRNA in the presence of chemical substance/The level of expressed mRNA in the absence of chemical substance (yeast gene YNL305C, incubated two hours with chemical substance): 1.3
The level of expressed mRNA in the presence of chemical substance/The level of expressed mRNA in the absence of chemical substance (yeast gene YNR068C, incubated two hours with chemical substance): 1.7
The level of expressed mRNA in the presence of chemical substance/The level of expressed mRNA in the absence of chemical substance (yeast gene YOL032W, incubated two hours with chemical substance): 1.4
The level of expressed mRNA in the presence of chemical substance/The level of expressed mRNA in the absence of chemical substance (yeast gene YOL036W, incubated two hours with chemical substance): 1.2
The level of expressed mRNA in the presence of chemical substance/The level of expressed mRNA in the absence of chemical substance (yeast gene YOL047C, incubated two hours with chemical substance): 1.4
The level of expressed mRNA in the presence of chemical substance/The level of expressed mRNA in the absence of chemical substance (yeast gene YOL071W, incubated two hours with chemical substance): 0.9
The level of expressed mRNA in the presence of chemical substance/The level of expressed mRNA in the absence of chemical substance (yeast gene YOL082W, incubated two hours with chemical substance): 1.5
The level of expressed mRNA in the presence of chemical substance/The level of expressed mRNA in the absence of chemical substance (yeast gene YOL083W, incubated two hours with chemical substance): 1.4
The level of expressed mRNA in the presence of chemical substance/The level of expressed mRNA in the absence of chemical substance (yeast gene YOL117W, incubated two hours with chemical substance): 1.7
The level of expressed mRNA in the presence of chemical substance/The level of expressed mRNA in the absence of chemical substance (yeast gene YOL131W, incubated two hours with chemical substance): 1.5
The level of expressed mRNA in the presence of chemical substance/The level of expressed mRNA in the absence of chemical substance (yeast gene YOL150C): 1.0
The level of expressed mRNA in the presence of chemical substance/The level of expressed mRNA in the absence of chemical substance (yeast gene YOL162W, incubated two hours with chemical substance): 0.9
The level of expressed mRNA in the presence of chemical substance/The level of expressed mRNA in the absence of chemical substance (yeast gene YOR019W, incubated two hours with chemical substance): 1.4
The level of expressed mRNA in the presence of chemical substance/The level of expressed mRNA in the absence of chemical substance (yeast gene YOR129C): 1.3
The level of expressed mRNA in the presence of chemical substance/The level of expressed mRNA in the absence of chemical substance (yeast gene YOR197W, incubated two hours with chemical substance): 0.6
The level of expressed mRNA in the presence of chemical substance/The level of expressed mRNA in the absence of chemical substance (yeast gene YPL087W, incubated two hours with chemical substance): 0.6
The level of expressed mRNA in the presence of chemical substance/The level of expressed mRNA in the absence of chemical substance (yeast gene YPL196W, incubated two hours with chemical substance): 1.5
The level of expressed mRNA in the presence of chemical substance/The level of expressed mRNA in the absence of chemical substance (yeast gene YPL206C, incubated two hours with chemical substance): 0.7
The level of expressed mRNA in the presence of chemical substance/The level of expressed mRNA in the absence of chemical substance (yeast gene YPL222W, incubated two hours with chemical substance): 1.2
The level of expressed mRNA in the presence of chemical substance/The level of expressed mRNA in the absence of chemical substance (yeast gene YPL272C): 1.3
The level of expressed mRNA in the presence of chemical substance/The level of expressed mRNA in the absence of chemical substance (yeast gene YPR023C, incubated two hours with chemical substance): 1.1
The level of expressed mRNA in the presence of chemical substance/The level of expressed mRNA in the absence of chemical substance (yeast gene YPR150W): 1.3
The level of expressed mRNA in the presence of chemical substance/The level of expressed mRNA in the absence of chemical substance (yeast gene YPR151C, incubated two hours with chemical substance): 1.3

— patent US8192962B2, “Processes for detecting toxic substances” (Daikin Industries, Ltd., priority 2001, dated 2012)
